Data on 37 molecules can be found in patent publication US8846694B2, “Pyrrolidone derivatives for use as MetAP-2 inhibitors” (Merck Patent GmbH, priority 2008, dated 2014).

For the assay, the target named is MetAP-2 (Homo sapiens, UniProt P50579). Description: MetAP-2 activity measurement (coupled enzymatic reactions, substrate Met-Arg-Ser, photometric at 450 nm). The format is biochemical. Conditions: read-out: IC50 enzyme (Inhibition of MetAP-2). The gist of the method:
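Human MetAP-2 cleaves Met-Arg-Ser; the freed methionine is oxidized by L-amino acid oxidase, and the resulting H2O2 drives peroxidase oxidation of dianisidine, read continuously at 450 nm. Activity is taken as the slope in the visually linear region.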

MetAP-2, sequence (P50579 whole entry, species assumed): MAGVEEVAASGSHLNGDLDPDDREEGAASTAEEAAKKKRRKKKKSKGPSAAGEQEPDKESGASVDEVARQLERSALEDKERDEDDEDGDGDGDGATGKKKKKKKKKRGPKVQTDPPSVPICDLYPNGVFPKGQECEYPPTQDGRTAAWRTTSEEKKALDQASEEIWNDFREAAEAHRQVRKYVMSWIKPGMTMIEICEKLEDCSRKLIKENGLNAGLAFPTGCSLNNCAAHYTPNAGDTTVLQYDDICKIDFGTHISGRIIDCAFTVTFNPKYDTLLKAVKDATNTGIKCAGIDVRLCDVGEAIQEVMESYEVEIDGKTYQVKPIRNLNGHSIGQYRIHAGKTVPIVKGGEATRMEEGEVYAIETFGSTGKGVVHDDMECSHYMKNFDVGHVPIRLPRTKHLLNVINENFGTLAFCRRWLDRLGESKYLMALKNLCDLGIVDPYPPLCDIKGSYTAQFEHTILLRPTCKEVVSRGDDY

With `CC(=O)N1CCN(c2ccc3cccc(OC[C@H]4CCCN4c4ncnc5[nH]cnc45)c3c2)CC1` [A116, 1-(4-{8-[(R)-1-(9H-Purin-6-yl)pyrrolidin-2-yl-methoxy]naphthalen-2-yl}piperazin-1-yl)-ethanone], the IC50 lay in the range of 0.01 to 1 µM.

With `Cc1ccc2nc(C(F)(F)F)cc(OC[C@H]3CCCN3c3ncnc4[nH]cnc34)c2c1` [A117, 6-Methyl-4-[(R)-1-(9H-purin-6-yl)pyrrolidin-2-yl-methoxy]-2-trifluoromethylquinoline], the 50% inhibitory concentration (IC50) fell in the range of 0.01 to 1 µM.

For `COc1ccc2cccc(OC[C@H]3CCCN3c3ncnc4[nH]cnc34)c2c1` [A118, 6-[(R)-2-(7-Methoxynaphthalen-1-yloxymethyl)-pyrrolidin-1-yl]-9H-purine], the IC50 was 0.01 to 1 µM.

As to `CCCCOC1=Cc2c(cccc2OC[C@H]2CCCN2c2ncnc3[nH]cnc23)CC1` [A119, 6-[(R)-2-(7-Butoxy-5,6-dihydronaphthalen-1-yl-oxymethyl)pyrrolidin-1-yl]-9H-purine], the IC50 lay within 1 to 10 µM.

Consider `O=C(OCc1ccccc1)N1CCc2cccc(OC[C@H]3CCCN3c3ncnc4[nH]cnc34)c2C1` [A120, Benzyl 8-[(R)-1-(9H-purin-6-yl)pyrrolidin-2-yl-methoxy]-3,4-dihydro-1H-isoquinoline-2-carboxylate], for which the IC50 lay within 1 to 10 µM.

On to `O=C1CCc2cccc(OC[C@H]3CCCN3c3ncnc4[nH]cnc34)c2C1` [A121, 8-[(R)-1-(9H-Purin-6-yl)pyrrolidin-2-ylmethoxy]-3,4-dihydro-1H-naphthalen-2-one], for which the half-maximal inhibitory concentration (IC50) lay within 1 to 10 µM.

Consider `c1cc2c(c(OC[C@H]3CCCN3c3ncnc4[nH]cnc34)c1)CNCC2` [A122, 8-[(R)-1-(9H-Purin-6-yl)pyrrolidin-2-ylmethoxy]-1,2,3,4-tetrahydroisoquinoline], for which the IC50 lay within 0.01 to 1 µM.

Consider `FC(F)(F)c1ccc2nccc(OC[C@H]3CCCN3c3ncnc4[nH]cnc34)c2c1` [A123, 4-[(R)-1-(9H-Purin-6-yl)pyrrolidin-2-ylmethoxy]-6-trifluoromethylquinoline], for which the concentration for half-maximal inhibition (IC50) lay in the range of 0.01 to 1 µM.

Turning to `Oc1ccc2cccc(OC[C@H]3CCCN3c3ncnc4[nH]cnc34)c2c1` [A124, 8-[(R)-1-(9H-Purin-6-yl)pyrrolidin-2-yl-methoxy]naphthalen-2-ol], the half-inhibitory concentration (IC50) was 1 to 10 µM.

For `Cn1ncc(Cl)c1C[C@@H]1CCc2c(OC[C@H]3CCCN3c3ncnc4[nH]cnc34)cccc2C1=O` [A125, (S)-2-(4-Chloro-2-methyl-2H-pyrazol-3-yl-methyl)-5-[(R)-1-(9H-purin-6-yl)pyrrolidin-2-yl-methoxy]-3,4-dihydro-2H-naphthalen-1-one], the IC50 was in the range of 0.01 to 1 µM.

Turning to `Cn1ncc(Cl)c1C[C@H]1CCc2c(OC[C@H]3CCCN3c3ncnc4[nH]cnc34)cccc2C1=O` [A126, (R)-2-(4-Chloro-2-methyl-2H-pyrazol-3-yl-methyl)-5-[(R)-1-(9H-purin-6-yl)pyrrolidin-2-yl-methoxy]-3,4-dihydro-2H-naphthalen-1-one], the IC50 was in the range of 0.01 to 1 µM.

Regarding `CCN(CC)C(=O)c1cc2cccc(OC[C@H]3CCCN3c3ncnc4[nH]cnc34)c2cc1O` [A127, N,N-Diethyl-3-hydroxy-5-[(R)-1-(9H-purin-6-yl)-pyrrolidin-2-ylmethoxy]naphthalene-2-carboxamide], the half-inhibitory concentration (IC50) is 0.01 to 1 µM.

In the case of `N#CCCN1CCN(Cc2ccc(OC[C@H]3CCCN3c3ncnc4[nH]cnc34)c3ccccc23)CC1` [A128, 3-(4-{4-[(R)-1-(9H-Purin-6-yl)pyrrolidin-2-yl-methoxy]naphthalen-1-ylmethyl}piperazin-1-yl)-propionitrile], the 50% inhibitory concentration (IC50) fell in the range of 0.01 to 1 µM.

Consider `O=C1c2cccc(OC[C@H]3CCCN3c3ncnc4[nH]cnc34)c2CC[C@@H]1Cc1cc[nH]n1` [A129, (R)-5-[(R)-1-(9H-Purin-6-yl)pyrrolidin-2-yl-methoxy]-2-(1H-pyrazol-3-ylmethyl)-3,4-dihydro-2H-naphthalen-1-one], for which the IC50 was in the range of 0.01 to 1 µM.

Regarding `O=C1c2cccc(OC[C@H]3CCCN3c3ncnc4[nH]cnc34)c2CC[C@H]1Cc1cc[nH]n1` [A130, (S)-5-[(R)-1-(9H-Purin-6-yl)pyrrolidin-2-yl-methoxy]-2-(1H-pyrazol-3-ylmethyl)-3,4-dihydro-2H-naphthalen-1-one], the IC50 lay within 0.01 to 1 µM.

In the case of `Oc1ccc2cccc(NC[C@H]3CCCN3c3ncnc4[nH]cnc34)c2c1` [A131, 8-{[(R)-1-(9H-Purin-6-yl)pyrrolidin-2-ylmethyl]-amino}naphthalen-2-ol], the half-maximal inhibitory concentration (IC50) is greater than 10 µM.

`O=S(=O)(O)c1ccc2cccc(NC[C@H]3CCCN3c3ncnc4[nH]cnc34)c2c1` [A132, 8-{[(R)-1-(9H-Purin-6-yl)pyrrolidin-2-yimethyl]-amino}naphthalene-2-sulfonic acid]: the IC50 is greater than 10 µM.

As for `CC(C)(C)OC(=O)NCCCCCC(=O)N1CCc2cccc(OC[C@H]3CCCN3c3ncnc4[nH]cnc34)c2C1` [A133, tert-Butyl (6-oxo-6-{8-[(R)-1-(9H-purin-6-yl)-pyrrolidin-2-ylmethoxy]-3,4-dihydro-1H-isoquinolin-2-yl}hexyl)carbamate], the IC50 was 1 to 10 µM.

As for `O=C1OCCC1CCn1cnc2c(N3CCC[C@@H]3COc3cccc4ccc(O)cc34)ncnc21` (stereo partly drawn) [A134, 3-(2-{6-[(R)-2-(7-Hydroxynaphthalen-1-yl-oxymethyl)pyrrolidin-1-yl]purin-9-yl}ethyl)-dihydrofuran-2-one], the IC50 was 1 to 10 µM.

As to `NC(=O)CCn1cnc2c(N3CCC[C@@H]3COc3cccc4ccc(O)cc34)ncnc21` [A135, 3-{6-[(R)-2-(7-Hydroxynaphthalen-1-yl-oxymethyl)pyrrolidin-1-yl]purin-9-yl}-propionamide], the IC50 is greater than 10 µM.

In the case of `CCOC(=O)CCCCn1cnc2c(N3CCC[C@@H]3COc3cccc4ccc(O)cc34)ncnc21` [A136, Ethyl 5-{6-[(R)-2-(7-hydroxynaphthalen-1-yl-oxymethyl)pyrrolidin-1-yl]purin-9-yl}pentanoate], the IC50 was greater than 10 µM.

On to `FC(F)(F)Oc1ccc2nccc(OC[C@H]3CCCN3c3ncnc4[nH]cnc34)c2c1` [A137, 4-[(R)-1-(9H-Purin-6-yl)pyrrolidin-2-ylmethoxy]-6-trifluoromethoxyquinoline], for which the half-maximal inhibitory concentration (IC50) lay within 0.01 to 1 µM.

As for `NCCCCCC(=O)N1CCc2cccc(OC[C@H]3CCCN3c3ncnc4[nH]cnc34)c2C1` [A138, 6-Amino-1-{8-[(R)-1-(9H-purin-6-yl)pyrrolidin-2-ylmethoxy]-3,4-dihydro-1H-isoquinolin-2-yl}-hexan-1-one], the concentration for half-maximal inhibition (IC50) lay within 0.01 to 1 µM.

`CCCCOC(=O)c1cc(OC[C@H]2CCCN2c2ncnc3[nH]cnc23)c2cc(F)ccc2n1` [A139, Butyl 6-fluoro-4-[(R)-1-(9H-purin-6-yl)pyrrolidin-2-ylmethoxy]quinoline-2-carboxylate]: the 50% inhibitory concentration (IC50) lay in the range of 0.01 to 1 µM.

Turning to `[O-][n+]1c(C(F)(F)F)cc(OC[C@H]2CCCN2c2ncnc3[nH]cnc23)c2cc(F)ccc21` [A140, 6-Fluoro-4-[(R)-1-(9H-purin-6-yl)pyrrolidin-2-yl-methoxy]-2-trifluoromethylquinoline 1-oxide], the IC50 was in the range of 0.01 to 1 µM.

Regarding `O=C(O)c1cc(OC[C@H]2CCCN2c2ncnc3[nH]cnc23)c2cc(F)ccc2n1` [A141, 6-Fluoro-4-[(R)-1-(9H-purin-6-yl)pyrrolidin-2-yl-methoxy]quinoline-2-carboxylic acid], the half-maximal inhibitory concentration (IC50) lay in the range of 0.01 to 1 µM.

In the case of `O=[N+]([O-])c1ccc2cccc(OC[C@H]3CCCN3c3ncnc4[nH]cnc34)c2c1` [A142, 6-[(R)-2-(7-Nitronaphthalen-1-yloxymethyl)-pyrrolidin-1-yl]-9H-purine], the half-maximal inhibitory concentration (IC50) is 0.01 to 1 µM.

Consider `CNc1ccccc1C(=O)OC[C@H]1CCCN1c1ncnc2[nH]cnc12` [A143, (R)-1-(9H-purin-6-yl)pyrrolidin-2-ylmethyl 2-methylaminobenzoate], for which the IC50 was 0.01 to 1 µM.

As to `Nc1ccc2cccc(OC[C@H]3CCCN3c3ncnc4[nH]cnc34)c2c1` [A144, 8-[(R)-1-(9H-Purin-6-yl)pyrrolidin-2-yl-methoxy]naphthalen-2-ylamine], the half-maximal inhibitory concentration (IC50) was 0.01 to 1 µM.

Turning to `CN1CCN(c2ccc3cccc(OC[C@H]4CCCN4c4ncnc5[nH]cnc45)c3c2)CC1` [A145, 6-{(R)-2-[7-(4-Methylpiperazin-1-yl)naphthalen-1-yloxymethyl]pyrrolidin-1-yl}-9H-purine], the IC50 lay within 1 to 10 µM.

As to `c1cc(OC[C@H]2CCCN2c2ncnc3[nH]cnc23)c2cc(N3CCOCC3)ccc2c1` [A146, 6-[(R)-2-(7-Morpholin-4-ylnaphthalen-1-yl-oxymethyl)pyrrolidin-1-yl]-9H-purine], the IC50 fell in the range of 0.01 to 1 µM.

On to `Oc1ccc(OC[C@H]2CCCN2c2ncnc3[nH]c(F)nc23)c2ccccc12` [A147, 4-[(R)-1-(8-Fluoro-9H-purin-6-yl)pyrrolidin-2-yl-methoxy]naphthalen-1-ol], for which the half-maximal inhibitory concentration (IC50) lay in the range of 1 to 10 µM.

As for `c1ccc2c(OC[C@H]3CCCN3c3ncnc4[nH]cnc34)cncc2c1` [A148, 4-[(R)-1-(9H-Purin-6-yl)pyrrolidin-2-yl-methoxy]isoquinoline], the 50% inhibitory concentration (IC50) is 0.01 to 1 µM.

As to `O=C(NCCN1CCOCC1)c1cc(OC[C@H]2CCCN2c2ncnc3[nH]cnc23)c2ccccc2n1` [A149, N-(2-Morpholin-4-ylethyl)-4-[(R)-1-(9H-purin-6-yl)pyrrolidin-2-ylmethoxy]quinoline-2-carboxamide], the IC50 is greater than 10 µM.

For the molecule `O=C(NCCCN1CCOCC1)c1cc(OC[C@H]2CCCN2c2ncnc3[nH]cnc23)c2ccccc2n1` [A150, N-(3-Morpholin-4-ylpropyl)-4-[(R)-1-(9H-purin-6-yl)pyrrolidin-2-ylmethoxy]quinoline-2-carboxamide], the IC50 was 0.01 to 1 µM.

`COC(=O)c1c(OC[C@H]2CCCN2c2ncnc3[nH]cnc23)c2cc(F)ccc2n1C` [A151, Methyl 5-fluoro-1-methyl-3-[(R)-1-(9H-purin-6-yl)pyrrolidin-2-ylmethoxy]-1H-indole-2-carboxylate]: the IC50 was 0.01 to 1 µM.

Turning to `COc1ccc(CCOc2cc3c(OC[C@H]4CCCN4c4ncnc5[nH]cnc45)ccc(CCc4ccc(OC)cc4)c3cc2C(=O)N(C)C)cc1` [A152, N,N-Dimethyl-3-[2-(4-methoxyphenyl)ethoxy]-8-[2-(4-methoxyphenyl)ethyl]-5-[(R)-1-(9H-purin-6-yl)pyrrolidin-2-ylmethoxy]naphthalene-2-carboxamide], the half-maximal inhibitory concentration (IC50) is greater than 10 µM.

What is called IC50 is the point on the concentration scale where inhibition reaches its midpoint.
